Results reported in patent publication US8501713B2, “Drug combinations for the treatment of duchenne muscular dystrophy” (Summit Corporation PLC, priority 2007, dated 2013).

System: Utrophin A promoter linked to a luciferase reporter gene
Assay: Luciferase reporter assay (murine H2K cells)
Type: cell-based
Conditions: for activity at 10 µM: Mus musculus, H2K mdx, luciferase level relative to control, H2K/mdx/Utro A reporter cells, compound 10 μM final concentration, read-out: Activity; for Activity: luciferase reporter assay in murine H2K cells, classified relative to control
Method: 1. Luciferase Reporter Assay (Murine H2K Cells)
The cell line used for the screen is an immortalized mdx mouse H2K cell line that has been stably transfected with a plasmid containing […] fragment of the Utrophin A promoter including the first untranslated exon linked to a luciferase reporter gene. Under conditions of low temperature and interferon containing media, the cells remain as myoblasts. These are plated into 96 well plates and cultured in the presence of compound for three days. The level of luciferase is then determined by cell lysis and reading of the light output from the expressed luciferase gene utilising a plate luminometer.
H2K/mdx/Utro A reporter Cell Line Maintenance
The cells were grown at 33° C. in the presence of 10% CO2. To remove the myoblasts for platting, they were incubated with Trypsin EDTA until the monolayer started to detach.
The plates were then incubated at 33° C. in the presence of 10% CO2 for 24 hrs. Compounds were dosed by adding 10 μl of diluted compound to each well giving a final concentration of 10 μM. The plates were then incubated for a further 48 hrs. Cells were then lysed in situ following the manufacture's protocols (Promega Steady-Glo Luciferase Assay System (E2520). Then counted for 10 seconds using a plate luminometer (Victor1420).
Compounds for screening were stored at −20° C. as 10 mM stocks in 100% DMSO until required.
Biological activity as assessed using the luciferase reporter assay in murine H2K cells, and is classified as follows: […]

| SMILES | activity at 10 µM | Activity |
| --- | --- | --- |
| CC(C)C(=O)Nc1ccc2oc(-c3ccccc3Cl)nc2c1 [Example 230, N-(2-(2-chlorophenyl)benzo[d]oxazol-5-yl)isobutyramide] | > 401% | – |
| O=C(Nc1nc2ccccc2s1)c1cc(Br)ccc1Cl [Example 671] | – | ++ (Between 201% and 300% relative to control) |
| O=[N+]([O-])c1ccc2oc(-c3ccccc3)nc2c1 [Example 492] | – | ++ (Between 201% and 300% relative to control) |
| CCS(=O)(=O)c1ccc(-c2ccc3oc(-c4ccc(Cl)cc4)nc3c2)cc1 [Example 269, 2-(4-chlorophenyl)-5-(4-(ethylsulfonyl)phenyl)benzo[d]oxazole] | < 200% | – |
| CC(C)C(=O)Nc1cc2oc(-c3ccc4c(c3)OCO4)nc2cc1Cl [Example 398, N-(2-(benzo[d][1,3]dioxol-5-yl)-5-chlorobenzo[d]oxazol-6-yl)isobutyramide] | < 200% | – |
| CCCc1ccc2oc(-c3cccc(C(=O)O)c3)nc2c1 [Example 80, 3-(5-propylbenzo[d]oxazol-2-yl)benzoic acid] | < 200% | – |
| CCC(=O)Nc1ccc2oc(-c3cccc(C)c3)nc2c1 [Example 668] | – | ++ (Between 201% and 300% relative to control) |
| CC(C)C(=O)Nc1ccc2oc(-c3cccc(N(C)C)c3)nc2c1 [Example 204, N-(2-(3-(dimethylamino)phenyl)benzo[d]oxazol-5-yl)isobutyramide] | > 401% | – |
| CCN(CC)c1ccc(-c2nc3cc(NC(=O)c4ccc(Cl)c(Cl)c4)ccc3o2)cc1 [Example 68, 3,4-dichloro-N-(2-(4-(diethylamino)phenyl)benzo[d]oxazol-5-yl)benzamide] | < 200% | – |
| O=C(Nc1ccc(-c2nc3ccccc3[nH]2)cc1)c1ccco1 [Example 562] | – | +++ (Between 301% and 400% relative to control) |
| CC(=O)Nc1ccc2oc(-c3ccccc3)nc2c1 [Example 8, N-(2-phenylbenzo[d]oxazol-5-yl)acetamide] | 201 to 300% | – |
| CNS(=O)(=O)c1ccc2nc(NC(=O)c3cccs3)sc2c1 [Example 687] | – | ++ (Between 201% and 300% relative to control) |
| c1ccc(OCc2nc3ccccc3[nH]2)cc1 [Example 471] | – | ++ (Between 201% and 300% relative to control) |
| CCCCC(=O)Nc1ccc2oc(-c3cccnc3)nc2c1 [Example 55, N-(2-(pyridin-3-yl)benzo[d]oxazol-5-yl)pentanamide] | < 200% | – |
| CCN(CC)c1ccc(-c2nc3cc(NC(=O)CCc4ccccc4)ccc3o2)cc1 [Example 74, N-(2-(4-(diethylamino)phenyl)benzo[d]oxazol-5-yl)-3-phenylpropanamide] | < 200% | – |
| COc1ccc2cc(-c3nc4cc(N)ccc4o3)ccc2c1 [Example 404, 2-(6-methoxynaphthalen-2-yl)benzo[d]oxazol-5-amine] | 201 to 300% | – |
| CCCC(=O)Nc1ccc2oc(-c3ccc(C)cc3)nc2c1 [Example 116, N-(2-p-tolylbenzo[d]oxazol-5-yl)butyramide] | > 401% | – |
| CCC(=O)Nc1cccc(-c2nc3cc(C)ccc3o2)c1 [Example 644] | – | +++ (Between 301% and 400% relative to control) |
| Clc1ccc(-c2nc3cc4c(cc3o2)OCO4)cc1 [Example 310, 2-(4-chlorophenyl)-5,6-methylenedioxybenzoxazole] | 301 to 400% | – |
| CCN(CC)c1ccc(-c2nc3ccccc3o2)cc1 [Example 143, 4-(benzo[d]oxazol-2-yl)-N,N-diethylaniline] | 201 to 300% | – |
| CCCCC(=O)Nc1ccc2oc(-c3ccc(OC)cc3)nc2c1 [Example 138, N-(2-(4-methoxyphenyl)benzo[d]oxazol-5-yl)pentanamide] | < 200% | – |
| CC(C)C(=O)Nc1ccc(-c2nc3ccc(Cl)cc3o2)cc1 [Example 333, N-(4-(6-chlorobenzo[d]oxazol-2-yl)phenyl)isobutyramide] | 201 to 300% | – |
| CC(C)(C)C(=O)Nc1ccc2oc(-c3ccc(Cl)cc3)nc2c1 [Example 210, N-(2-(4-chlorophenyl)benzo[d]oxazol-5-yl)pivalamide] | 201 to 300% | – |
| COc1ccc(C(=O)Nc2ccc3oc(-c4ccc(C)cc4)nc3c2)cc1 [Example 20, 4-methoxy-N-(2-p-tolylbenzo[d]oxazol-5-yl)benzamide] | < 200% | – |
| CC(C)C(=O)Nc1ccc2oc(-c3cccc(Cl)c3)nc2c1 [Example 231, N-(2-(3-chlorophenyl)benzo[d]oxazol-5-yl)isobutyramide] | > 401% | – |
| CC(=O)c1ccc2oc(-c3ccc(Cl)cc3)nc2c1 [Example 420, 1-(2-(4-chlorophenyl)benzo[d]oxazol-5-yl)ethanone] | > 401% | – |

| SMILES | activity at 10 µM | Activity |
| --- | --- | --- |
| CCc1ccc(-c2nc3cc(N)ccc3o2)cc1 [Example 481] | – | ++ (Between 201% and 300% relative to control) |
| COc1ccc(-c2nc3cc(NC(C)=O)ccc3o2)cc1 [Example 135, N-(2-(4-methoxyphenyl)benzo[d]oxazol-5-yl)acetamide] | 301 to 400% | – |
| CCCS(=O)(=O)Nc1ccc2oc(-c3ccc(C)cc3)nc2c1 [Example 253, N-(2-p-tolylbenzo[d]oxazol-5-yl)propane-1-sulfonamide] | < 200% | – |
| CCC(=O)Nc1ccc2oc(-c3ccc(OC)cc3)nc2c1 [Example 136, N-(2-(4-methoxyphenyl)benzo[d]oxazol-5-yl)propionamide] | 301 to 400% | – |
| Cc1ccc(C(=O)Nc2nc3ccccc3s2)c(Cl)c1 [Example 567] | – | + (Up to 200% relative to control) |
| Nc1ccc2[nH]c(-c3ccccc3O)nc2c1 [Example 133, 2-(5-amino-1H-benzo[d]imidazol-2-yl)phenol] | < 200% | – |
| Cc1ccc(-c2nc3cc(Br)cnc3o2)cc1 [Example 212, 6-bromo-2-p-tolyloxazolo[5,4-b]pyridine] | 201 to 300% | – |
| O=C(CCc1ccccc1)Nc1ccc2oc(-c3ccccc3)nc2c1 [Example 7, 3-phenyl-N-(2-phenylbenzo[d]oxazol-5-yl)propanamide] | < 200% | – |
| CN(C)c1ccc(C(=O)Nc2ccc3oc(-c4ccccc4)nc3c2)cc1 [Example 27, 4-(dimethylamino)-N-(2-phenylbenzo[d]oxazol-5-yl)benzamide] | < 200% | – |
| Cc1ccc(-c2nc3cc(N)ccc3s2)cc1 [Example 213, 2-p-tolylbenzo[d]thiazol-5-amine] | < 200% | – |
| O=C(Nc1ccc2oc(-c3ccc(Cl)cc3)nc2c1)c1ccc(C(F)(F)F)cc1 [Example 94, N-(2-(4-chlorophenyl)benzo[d]oxazol-5-yl)-4-(trifluoromethyl)benzamide] | < 200% | – |
| CCS(=O)(=O)c1ccc2oc(-c3cccs3)nc2c1 [Example 429, 5-(ethylsulfonyl)-2-(thiophen-2-yl)benzo[d]oxazole] | 201 to 300% | – |
| Cc1ccc(C(=O)Nc2ccc3c(c2)ncn3C)cc1 [Example 670] | – | ++ (Between 201% and 300% relative to control) |
| O=C(Nc1ccc2oc(-c3ccc(Cl)cc3)nc2c1)C1CC1 [Example 265, N-(2-(4-chlorophenyl)benzo[d]oxazol-5-yl)cyclopropanecarboxamide] | > 401% | – |
| Cc1ccc2[nH]c(-c3ccccc3N)nc2c1 [Example 554] | – | +++ (Between 301% and 400% relative to control) |
| CCS(=O)(=O)c1ccc2oc(-c3ccc(N)cc3O)nc2c1 [Example 447, 5-Amino-2-(5-(ethylsulfonyl)benzo[d]oxazol-2-yl)phenol] | 201 to 300% | – |
| CC(C)C(=O)Nc1ccc2oc(-c3ccc(OC(F)(F)F)cc3)nc2c1 [Example 355, N-(2-(4-(trifluoromethoxy)phenyl)benzo[d]oxazol-5-yl)isobutyramide] | < 200% | – |
| Cc1ccc2oc(-c3cccs3)nc2c1 [Example 612] | – | ++ (Between 201% and 300% relative to control) |
| COc1ccc(OCc2nc3ccccc3[nH]2)cc1 [Example 473] | – | ++ (Between 201% and 300% relative to control) |
| Nc1ccc(-c2nc3cc(Br)ccc3o2)cc1 [Example 336, 4-(5-bromobenzo[d]oxazol-2-yl)aniline] | > 401% | – |
| Cc1ccc(NC(=O)Nc2nc3ccccc3s2)cc1 [Example 637] | – | +++ (Between 301% and 400% relative to control) |
| CS(=O)(=O)c1ccc(-c2nc3cc(Cl)ccc3o2)cc1 [Example 395, 5-chloro-2-(4-(methylsulfonyl)phenyl)benzo[d]oxazole] | 201 to 300% | – |
| CCC(=O)N(C)c1ccc2oc(-c3ccc(Cl)cc3)nc2c1 [Example 219, N-(2-(4-chlorophenyl)benzo[d]oxazol-5-yl)-N-methylpropionamide] | 301 to 400% | – |
| COCCC(=O)Nc1ccc2oc(-c3ccc(C)cc3)nc2c1 [Example 160, 3-methoxy-N-(2-p-tolylbenzo[d]oxazol-5-yl)propanamide] | > 401% | – |
| Cc1ccc(-c2nc3cc(NC(=O)C(F)(F)F)ccc3o2)cc1 [Example 209, 2,2,2-trifluoro-N-(2-p-tolylbenzo[d]oxazol-5-yl)acetamide] | 201 to 300% | – |
| CC(C)C(=O)Nc1ccc2oc(-c3ccccc3F)nc2c1 [Example 243, N-(2-(2-fluorophenyl)benzo[d]oxazol-5-yl)isobutyramide] | 301 to 400% | – |
